Like-named read-outs stand apart in the source and are kept apart here. Bridge positions count the residues as written; N and C are the ends. Square brackets hold non-standard residues; d marks the D form. Peptide text beside a SMILES is read from it. Nle = CCCC[C@H](N)C(=O)O
Target: T1, bovine trypsin (Bos taurus, UniProt P00760)
T1 sequence (P00760 24-246): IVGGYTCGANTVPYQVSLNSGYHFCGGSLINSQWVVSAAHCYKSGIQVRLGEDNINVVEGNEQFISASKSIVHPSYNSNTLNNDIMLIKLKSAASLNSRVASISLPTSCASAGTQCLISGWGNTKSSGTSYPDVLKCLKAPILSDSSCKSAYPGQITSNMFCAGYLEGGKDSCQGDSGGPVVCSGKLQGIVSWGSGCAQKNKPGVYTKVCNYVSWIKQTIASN
Experiment: Trypsin inhibitory activity of peptides (BApNA hydrolysis, OD405; IC50, Ki, residual activity)
Format: biochemical
Conditions: for IC50: trypsin 50 nM, BApNA 1.22 mM, read-out: IC50; for Ki: Ki=IC50/(1+S/Km), Km 0.33 mM, read-out: Ki
Description: The substrates N-succinyl-Ala-Ala-Pro-Phe-p-nitroaniline (AAPFpNA), Nα—Benzoyl-L-arginine-4-nitroaniline hydrochloride (BApNA) and N-succinyl-[…] (AAApNA) are used in competitive binding reaction to determine the inhibitory activities against α-chymotrypsin, bovine trypsin, and porcine pancreatic elastase, respectively. Experiments for α-chymotrypsin and bovine trypsin inhibition were measured in 20 mM CaCl2, 50 mM Tris-HCl buffer (pH 7.8), and that for porcine elastase inhibition was measured in 50 mM Tris-HCl buffer (pH 8.0). The concentration of the peptide was measured using optical density (OD) at 280 nm. The Michaelis constant (Km) of the enzyme hydrolysis substrate is calculated from the initial rate of substrate hydrolysis at 405 nm. The absorbance value of the substrate was measured at 405 nm after complete hydrolysis. All data were processed using nonlinear regression.
• (1) Added 200 μL of reaction buffer (20 mM CaCl2 and 50 mM Tris-HCl, pH 7.8) into the 96-well plate, and preheated at 37° C. for 15 min. Then added 5 μL of different concentrations of substrates (p-Nitroanilide, pNA, 0.5% in DMSO), and mixed by centrifugation at 500 rpm for 1 min. […] The experiment was performed in triplicate. The standard curve was obtained by plotting the OD405 nm value with pNA concentration. • (2) Added 190 μL of reaction buffer (20 mM CaCl2 and 50 mM Tris-HCl, pH 7.8) and 10 μL of 1 μM trypsin into the 96-well plate, and preheated at 37° C. for 15 min. Then added 5 μL of different concentrations of substrates (BApNA, 0.5% in DMSO) and mixed by centrifugation at 500 rpm for 1 min. […] The experiment was performed in triplicate. The corresponding curve was obtained by plotting the OD405 nm value with time. Divided the slope of the curve by the slope of the standard curve and the enzyme concentration to obtain the initial velocity V0 (mM/(min*mM protein). Plotted the initial velocity V0 with the concentration of substrate BApNA using Prism software, and the Michaelis constant Km value of trypsin hydrolyzing BApNA was obtained.
• (1) Added a total 190 μL of reaction buffer (20 mM CaCl2 and 50 mM Tris-HCl, pH 7.8) along with different concentrations of anti-trypsin peptides (BTs) into the pre-cooled 96-well plate, followed by preheating at 37° C., and spined down at 500 rpm for 5 min. Next added 10 μL of 1 μM trypsin, incubated at 37° C., and then spined down at 500 rpm for 10 min. Finally, added 5 μL of 50 mM BApNA, and mixed by centrifugation at 500 rpm for 1 min. The plate was incubated at 37° C. for 260 min, and the absorbance value at 405 nm was measured. The experiment was performed in triplicate. The blank control only contained the reaction buffer and the substrate as the minimum absorption value (Min OD405 nm). The negative control only contained the reaction buffer, the enzyme and the substrate as the maximum absorption value (Max OD405 nm). • (2) In the reaction system of 205 μL, the final concentrations of trypsin and BApNA were 50 nM and 1.22 mM, respectively. • (3) Data statistics
Residual activity of the enzyme (%)=(1−(Max OD405 nm−Sample OD405 nm)/(Max OD405 nm−Min OD405 nm))*100
Plotted the residual activity of the enzyme with […] to obtain the half inhibitory concentration (IC50) of BTs scaffold against trypsin. Then, substituted it into the formula Ki=IC50/(1+S/Km) (S, IC50 and Km were substrate concentration, half inhibitory concentration and Michaelis constant, respectively) to obtain the inhibition constant Ki of BTs scaffold against trypsin.

Compound	inhibitory activity against trypsin (in words)	Residual trypsin activity (peptide 0.00098 μM) [%]	Residual trypsin activity (peptide 0.0098 μM) [%]	Residual trypsin activity (peptide 0.098 μM) [%]	Residual trypsin activity (peptide 0.98 μM) [%]	Residual trypsin activity (peptide 9.76 μM) [%]	Residual trypsin activity (peptide 97.56 μM) [%]	other results
CC[C@H](C)[C@@H]1NC(=O)[C@@H]2CCCN2C(=O)[C@@H]2CCCN2C(=O)[C@H]([C@@H](C)CC)NC(=O)[C@H](CO)NC(=O)[C@H](CCCNC(=N)N)NC(=O)[C@H]([C@@H](C)O)NC(=O)[C@H](C)NC(=O)[C@H](CCCNC(=N)N)NC(=O)CNC(=O)[C@@H](N)CSSC[C@@H](C(=O)N[C@@H](C)C(=O)O)NC1=O [BT19] (H-CGRATRSIPPICA-OH; disulfide 1-12; N-terminus and C-terminus assumed)	significant impact on their anti-trypsisn activities							
CC[C@H](C)[C@@H]1NC(=O)[C@H](CO)NC(=O)[C@H](CCCNC(=N)N)NC(=O)[C@H]([C@@H](C)O)NC(=O)[C@H](C)NC(=O)[C@H](CCCNC(=N)N)NC(=O)CNC(=O)[C@@H](N)CSSC[C@@H](C(=O)N[C@@H](Cc2ccccc2)C(=O)O)NC(=O)[C@H]([C@@H](C)CC)NC(=O)[C@@H]2CCCN2C(=O)[C@H](C)NC1=O [BT20] (H-CGRATRSIAPICF-OH; disulfide 1-12 (inferred); N-terminus and C-terminus assumed)								IC50: > 50000 nM
CC[C@H](C)[C@@H]1NC(=O)[C@@H]2CCCN2C(=O)[C@@H]2CCCN2C(=O)[C@H](C)NC(=O)[C@H](CO)NC(=O)[C@H](CCCNC(=N)N)NC(=O)[C@H]([C@@H](C)O)NC(=O)[C@H](C)NC(=O)[C@H](CCCNC(=N)N)NC(=O)CNC(=O)[C@@H](N)CSSC[C@@H](C(=O)N[C@@H](Cc2ccccc2)C(=O)O)NC1=O [BT21] (H-CGRATRSAPPICF-OH; disulfide 1-12; N-terminus and C-terminus assumed)	reduced their anti-trypsin activities							
CC[C@H](C)[C@@H]1NC(=O)[C@@H]2CCCN2C(=O)[C@@H]2CCCN2C(=O)[C@H]([C@@H](C)CC)NC(=O)[C@H](C)NC(=O)[C@H](CCCNC(=N)N)NC(=O)[C@H]([C@@H](C)O)NC(=O)[C@H](C)NC(=O)[C@H](CCCNC(=N)N)NC(=O)CNC(=O)[C@@H](N)CSSC[C@@H](C(=O)N[C@@H](Cc2ccccc2)C(=O)O)NC1=O [BT22] (H-CGRATRAIPPICF-OH; disulfide 1-12; N-terminus and C-terminus assumed)	reduced their anti-trypsin activities							
CC[C@H](C)[C@@H]1NC(=O)[C@@H]2CCCN2C(=O)[C@@H]2CCCN2C(=O)[C@H]([C@@H](C)CC)NC(=O)[C@H](CO)NC(=O)[C@H](CCCCN)NC(=O)[C@H]([C@@H](C)O)NC(=O)[C@H](C)NC(=O)[C@H]([C@@H](C)O)NC(=O)CNC(=O)[C@@H](N)CSSC[C@@H](C(=O)N[C@@H](CC(N)=O)C(=O)O)NC1=O [BT24] (H-CGTATKSIPPICN-OH; disulfide 1-12; N-terminus and C-terminus assumed)	significant impact on their anti-trypsisn activities							
CC[C@H](C)[C@@H]1NC(=O)[C@@H]2CCCN2C(=O)[C@@H]2CCCN2C(=O)[C@H]([C@@H](C)CC)NC(=O)[C@H](CO)NC(=O)[C@H](CCCCN)NC(=O)[C@H]([C@@H](C)O)NC(=O)[C@H](C)NC(=O)[C@H]([C@@H](C)O)NC(=O)CNC(=O)[C@@H](N)CSSC[C@@H](C(=O)N[C@@H](Cc2ccccc2)C(=O)O)NC1=O [BT25] (H-CGTATKSIPPICF-OH; disulfide 1-12; C-terminus assumed)	excellent trypsin inhibitory activities	100.6 ± 1.3	99.6 ± 1.4	100.4 ± 1.2	49.7 ± 3.5	1.0 ± 0.1	0.2 ± 0.1	Residual trypsin activity (peptide 0.7317 μM): 82.3 ± 3.9%; Residual trypsin activity (peptide 1.2195 μM): 23.2 ± 2.1%; Residual trypsin activity (peptide 292.68 μM): 0.2 ± 0.2%
CC[C@H](C)[C@@H]1NC(=O)[C@@H]2CCCN2C(=O)[C@@H]2CCCN2C(=O)[C@H]([C@@H](C)CC)NC(=O)[C@H](CO)NC(=O)[C@H](CCCCN)NC(=O)[C@H](C)NC(=O)[C@H](C)NC(=O)[C@H](CCCNC(=N)N)NC(=O)CNC(=O)[C@@H](N)CSSC[C@@H](C(=O)N[C@@H](Cc2ccccc2)C(=O)O)NC1=O [BT26] (H-CGRAAKSIPPICF-OH; disulfide 1-12; N-terminus and C-terminus assumed)			99.5 ± 0.9	100.2 ± 1.4	94.5 ± 0.7	0.4 ± 0.1	0.1 ± 0.0	Residual trypsin activity (peptide 1.95 μM): 77.6 ± 3.1%; Residual trypsin activity (peptide 2.439 μM): 55.1 ± 1.3%; Residual trypsin activity (peptide 3.90 μM): 1.4 ± 0.1%; Residual trypsin activity (peptide 975.61 μM): 0.5 ± 0.0%
CC[C@H](C)[C@@H]1NC(=O)[C@@H]2CCCN2C(=O)[C@@H]2CCCN2C(=O)[C@H]([C@@H](C)CC)NC(=O)[C@H](C)NC(=O)[C@H](CCCCN)NC(=O)[C@H]([C@@H](C)O)NC(=O)[C@H](C)NC(=O)[C@H](CCCNC(=N)N)NC(=O)CNC(=O)[C@@H](N)CSSC[C@@H](C(=O)N[C@@H](Cc2ccccc2)C(=O)O)NC1=O [BT27] (H-CGRATKAIPPICF-OH; disulfide 1-12; C-terminus assumed)	reduced their anti-trypsin activities	98.9 ± 1.5	103.5 ± 2.4	92.0 ± 1.9	1.3 ± 0.3	0.1 ± 0.0	0.1 ± 0.0	Ki: 60 nM; inhibitory activity against trypsin (in words) (listed as SEQ ID NO: 27): excellent trypsin inhibitory activities; Residual trypsin activity (peptide 0.000098 μM): 101.0 ± 0.7%; Residual trypsin activity (peptide 0.195 μM): 74.1 ± 1.3%; Residual trypsin activity (peptide 0.293 μM): 49.2 ± 3.0%; Residual trypsin activity (peptide 0.390 μM): 19.9 ± 6.3%
CCCC[C@@H]1NC(=O)[C@H](CO)NC(=O)[C@H](CCCCN)NC(=O)[C@H]([C@@H](C)O)NC(=O)[C@H](C)NC(=O)[C@H](CCCNC(=N)N)NC(=O)CNC(=O)[C@@H](N)CSSC[C@@H](C(=O)N[C@@H](Cc2ccccc2)C(=O)O)NC(=O)[C@H]([C@@H](C)CC)NC(=O)[C@@H]2CCCN2C(=O)[C@@H]2CCCN2C1=O [BT28] (H-CGRATKS[Nle]PPICF-OH; disulfide 1-12; C-terminus assumed)	reduced their anti-trypsin activities	102.3 ± 0.7	101.8 ± 0.1	92.2 ± 5.5	0.7 ± 0.0	0.1 ± 0.0	0.0 ± 0.0	Ki: 60 nM; inhibitory activity against trypsin (in words) (listed as SEQ ID NO: 28): excellent trypsin inhibitory activities; Residual trypsin activity (peptide 0.195 μM): 77.6 ± 8.3%; Residual trypsin activity (peptide 0.293 μM): 52.7 ± 5.9%; Residual trypsin activity (peptide 0.390 μM): 16.7 ± 3.7%; IC50: 290 nM

Reference: patent US20230416329A1, “A PEPTIDE WITH DISULFIDE BONDS AND INHIBITORY ACTIVITY AGAINST SERINE PROTEASES, DERIVED HYBRID PEPTIDES THEREOF, AND USES THEREOF” (INSTITUTE OF MATERIA MEDICA , CHINESE ACADEMY OF MEDICAL …, priority 2020, published 2023)
